Source: ChEMBL document CHEMBL1201862, “PubChem BioAssay data set” (2004)
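Values below derive from 48-hour exposures of cells grown in 96-well plates, with endpoints linearly interpolated between the two concentrations bracketing the appropriate inhibition level. GI50 is the concentration that inhibits growth by half.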 The source made the active and inactive calls. No stated cut-off is given here; in the data, active = GI50 up to about 1.1 µM and inactive = higher.

Assays:
Assay in all cases: growth of human tumour cells (NCI), 48 h
786-0 = tested on: 786-0
ACHN = tested on: ACHN
CAKI-1 = tested on: CAKI-1
COLO 205 = tested on: COLO 205
HCC 2998 = tested on: HCC 2998
HL-60 = tested on: HL-60
HOP-62 = tested on: HOP-62
HOP-92 = tested on: HOP-92
KM12 = tested on: KM12
LOX IMVI = tested on: LOX IMVI
Malme-3M = tested on: Malme-3M
NCI-H226 = tested on: NCI-H226
NCI-H460 = tested on: NCI-H460
OVCAR-3 = tested on: OVCAR-3
PC-3 = tested on: PC-3
RPMI-8226 = tested on: RPMI-8226
SK-MEL-5 = tested on: SK-MEL-5
SW-620 = tested on: SW-620
TK-10 = tested on: TK-10
UO-31 = tested on: UO-31

SMILES | GI50 (786-0) | GI50 (ACHN) | GI50 (CAKI-1) | GI50 (COLO 205) | GI50 (HCC 2998) | GI50 (HL-60) | GI50 (HOP-62) | GI50 (HOP-92) | GI50 (KM12) | GI50 (LOX IMVI) | GI50 (Malme-3M) | GI50 (NCI-H226) | GI50 (NCI-H460) | GI50 (OVCAR-3) | GI50 (PC-3) | GI50 (RPMI-8226) | GI50 (SK-MEL-5) | GI50 (SW-620) | GI50 (TK-10) | GI50 (UO-31)
CC(C)OC(=O)c1ccc(CCC2=CC(=O)C=CC2=O)cc1 | 4.22 µM (inactive) | 7.89 µM (inactive) | 1.98 µM (inactive) | 8.85 µM (inactive) | 16.8 µM (inactive) | 0.773 µM (active) | 20.3 µM (inactive) | 5.05 µM (inactive) | 12.2 µM (inactive) | 4.1 µM (inactive) | 6.92 µM (inactive) | 15.9 µM (inactive) | 21.8 µM (inactive) | 5.18 µM (inactive) | 12 µM (inactive) | 2.79 µM (inactive) | 15 µM (inactive) | 4.69 µM (inactive) | 9.73 µM (inactive) | 4.5 µM (inactive)
Cc1ccc([S+]([O-])(=Nc2ccccc2)C(C(C)C)C(C)(C)Cl)cc1 (stereo not given) | 24.2 µM (inactive) | 31.6 µM (inactive) | 14.5 µM (inactive) | 0.91 µM (active) | 21.6 µM (inactive) | 7.67 µM (inactive) | > 50 µM (inactive) | 30.1 µM (inactive) | 13.5 µM (inactive) | 25.2 µM (inactive) | 27.9 µM (inactive) | 2.72 µM (inactive) | 4.21 µM (inactive) | 29.6 µM (inactive) | 16.1 µM (inactive) | 14 µM (inactive) | 4.06 µM (inactive) | 20.9 µM (inactive) | 21.4 µM (inactive) | 18.8 µM (inactive)
CC(C(=O)[O-])S(=O)(=O)O.CCc1c2cc(OC)c(OC)cc2cc2c3cc(OC)c(OC)cc3cc[n+]12 | 36.9 µM (inactive) | 58.9 µM (inactive) | 60.4 µM (inactive) | 4.78 µM (inactive) | 15 µM (inactive) | 20.8 µM (inactive) | 41.7 µM (inactive) | 29 µM (inactive) | 17.8 µM (inactive) | 27.5 µM (inactive) | 8.79 µM (inactive) | 9.73 µM (inactive) | 42.4 µM (inactive) | 12.4 µM (inactive) | 17.9 µM (inactive) | 25.8 µM (inactive) | 15.3 µM (inactive) | 26.5 µM (inactive) | 69.7 µM (inactive) | 53.7 µM (inactive)
COc1ccc2c(c1)-c1c(c3ccccc3n1CCN1CCCCC1)CC2 | 16.9 µM (inactive) | 33.7 µM (inactive) | 21.6 µM (inactive) | 13.2 µM (inactive) | 6.87 µM (inactive) | 2.63 µM (inactive) | 8.79 µM (inactive) | 21.8 µM (inactive) | 6.07 µM (inactive) | 16.3 µM (inactive) | 23.4 µM (inactive) | 17.2 µM (inactive) | 16.6 µM (inactive) | 6.08 µM (inactive) | 5.75 µM (inactive) | 11.3 µM (inactive) | 14.6 µM (inactive) | 26.1 µM (inactive) | 20.3 µM (inactive) | 12.6 µM (inactive)
O=C(CNS(=O)(=O)Cc1ccccc1)NNc1ccccc1 | > 100 µM (inactive) | > 100 µM (inactive) | 5.6 µM (inactive) | 3.23 µM (inactive) | > 100 µM (inactive) | 3.44 µM (inactive) | > 100 µM (inactive) | > 100 µM (inactive) | 6.1 µM (inactive) | 1.85 µM (inactive) | > 100 µM (inactive) | > 100 µM (inactive) | 25.1 µM (inactive) | 49.4 µM (inactive) | > 100 µM (inactive) | 18.4 µM (inactive) | 80 µM (inactive) | 8.05 µM (inactive) | > 100 µM (inactive) | > 100 µM (inactive)
